Test results taken from US20120238549A1, “Nuclear Hormone Receptor Modulators” (ABBOTT LABORATORIES, priority 2011, published 2012).

These molecules were tested against T1, Glucocorticoid Receptor (GR) (Homo sapiens, UniProt P04150) (assay: GR Florescence Polarization Assay (PolarScreen Glucocorticoid Receptor Competitor Assay, Red)). Settings: Fluorescense polarization binding ranges; competition with fluorescent glucocorticoid, incubated overnight at 4° C.
T1 construct: purchased Invitrogen P2893
T1 sequence (P04150 1-777): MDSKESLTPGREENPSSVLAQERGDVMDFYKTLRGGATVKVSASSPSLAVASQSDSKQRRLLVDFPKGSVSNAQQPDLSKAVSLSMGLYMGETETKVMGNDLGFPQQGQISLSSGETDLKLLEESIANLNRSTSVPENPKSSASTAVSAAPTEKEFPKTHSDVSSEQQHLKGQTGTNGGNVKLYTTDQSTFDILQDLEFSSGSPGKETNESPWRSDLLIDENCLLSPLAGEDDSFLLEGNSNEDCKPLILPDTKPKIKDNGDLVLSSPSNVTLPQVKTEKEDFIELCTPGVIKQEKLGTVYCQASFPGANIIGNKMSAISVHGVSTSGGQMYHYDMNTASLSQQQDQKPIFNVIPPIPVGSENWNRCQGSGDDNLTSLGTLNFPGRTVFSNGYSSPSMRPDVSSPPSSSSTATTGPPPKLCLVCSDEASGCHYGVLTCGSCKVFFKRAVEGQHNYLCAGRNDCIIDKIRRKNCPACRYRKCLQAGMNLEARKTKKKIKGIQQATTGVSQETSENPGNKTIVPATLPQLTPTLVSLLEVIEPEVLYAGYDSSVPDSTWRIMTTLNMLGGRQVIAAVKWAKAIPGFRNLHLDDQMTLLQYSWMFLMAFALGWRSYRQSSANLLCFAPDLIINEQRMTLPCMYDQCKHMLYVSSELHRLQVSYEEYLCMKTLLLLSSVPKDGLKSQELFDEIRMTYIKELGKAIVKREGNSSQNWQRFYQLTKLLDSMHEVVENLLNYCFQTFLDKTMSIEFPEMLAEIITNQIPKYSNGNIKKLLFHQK
Procedure, shortened: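 Competitive fluorescence polarization using fluorescent glucocorticoid tracer and human GR in kit buffer. Compounds serially diluted 1:4 in DMSO, incubated with tracer and GR overnight at 4 °C before polarization read.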

Compound | IC50 [nM]
CC[C@@]1(O)CC[C@@]2(Cc3ccccc3)c3ccc(C(=O)Nc4ccc(-c5ccn[nH]5)nc4C)cc3CCC[C@H]2C1 [Example 87, (7aS,9R,11aS)-11a-Benzyl-9-ethyl-9-hydroxy-6,7,7a,8,9,10,11,11a-octahydro-5H-dibenzo[a,c]cycloheptene-3-carboxylic acid [2-methyl-6-(2H-pyrazol-3-yl)-pyridin-3-yl]-amide] | < 100
Cc1ncccc1NC(=O)c1ccc2c(c1)CCC[C@@H]1C[C@@](O)(C(F)(F)F)CC[C@@]21Cc1ccccc1 [Example 106, (7aR,9R,11aS)-11a-Benzyl-9-hydroxy-9-trifluoromethyl-6,7,7a,8,9,10,11,11a-octahydro-5H-dibenzo[a,c]cycloheptene-3-carboxylic acid (2-methyl-pyridin-3-yl)-amide] | < 100
Cc1ncccc1NC(=O)c1ccc2c(c1)CCC[C@H]1C[C@](O)(C(F)(F)F)CC[C@]21Cc1ccccc1 [Example 107, (7aS,9S,11aR)-11a-Benzyl-9-hydroxy-9-trifluoromethyl-6,7,7a,8,9,10,11,11a-octahydro-5H-dibenzo[a,c]cycloheptene-3-carboxylic acid (2-methyl-pyridin-3-yl)-amide] | 100 to 1000
Cc1ncccc1NC(=O)c1ccc2c(c1)CN(C)C[C@H]1CC(=O)CC[C@@]21Cc1ccccc1 [Example 108, (4aS,11bS)-11b-Benzyl-6-methyl-N-(2-methylpyridin-3-yl)-3-oxo-2,3,4,4a,5,6,7,11b-octahydro-1H-dibenzo[c,e]azepine-9-carboxamide] | 1000 to 10000
Cc1ncccc1NC(=O)c1ccc2c(c1)CN(C)C[C@H]1C[C@@H](O)CC[C@@]21Cc1ccccc1 [Example 109, (3S,4aS,11bS)-11b-benzyl-3-hydroxy-6-methyl-N-(2-methylpyridin-3-yl)-2,3,4,4a,5,6,7,11b-octahydro-1H-dibenzo[c,e]azepine-9-carboxamide] | > 10000
Cc1ncccc1NC(=O)c1ccc2c(c1)COC(=O)[C@H]1CC(=O)CC[C@@]21Cc1ccccc1 [Example 110, (7aS,11aS)-11a-Benzyl-N-(2-methylpyridin-3-yl)-7,9-dioxo-5,7,7a,8,9,10,11,11a-octahydrodibenzo[c,e]oxepine-3-carboxamide] | > 10000
CC[C@@]1(O)CC[C@@]2(Cc3ccccc3)c3ccc(C(=O)Nc4cccnc4C)cc3COC[C@H]2C1 [Example 111, (7aS,9R,11aS)-11a-Benzyl-9-ethyl-9-hydroxy-N-(2-methylpyridin-3-yl)-5,7,7a,8,9,10,11,11a-octahydrodibenzo[c,e]oxepine-3-carboxamide] | < 100
CC[C@@]1(O)CC[C@@]2(Cc3ccccc3)c3ccc(C(=O)Nc4cccnc4C)cc3C(=O)OC[C@H]2C1 [Example 112, (7aS,9R,11aS)-11a-Benzyl-9-ethyl-9-hydroxy-N-(2-methylpyridin-3-yl)-5-oxo-5,7,7a,8,9,10,11,11a-octahydrodibenzo[c,e]oxepine-3-carboxamide] | 100 to 1000
CC[C@@]1(O)CC[C@@]2(Cc3ccccc3)c3ccc(C(=O)Nc4cccnc4C)cc3C(=O)N(C)C[C@@H]2C1 [Example 113, (3R,4aR,11bS)-11b-Benzyl-3-ethyl-3-hydroxy-6-methyl-N-(2-methylpyridin-3-yl)-7-oxo-2,3,4,4a,5,6,7,11b-octahydro-1H-dibenzo[c,e]azepine-9-carboxamide] | 1000 to 10000
CC[C@@]1(O)CC[C@@]2(Cc3ccccc3)c3ccc(C(=O)Nc4cccnc4C)cc3CC(=O)C[C@H]2C1 [Example 114, (7aR,9R,11aS)-11a-Benzyl-9-ethyl-9-hydroxy-6-oxo-6,7,7a,8,9,10,11,11a-octahydro-5H-dibenzo[a,c]cycloheptene-3-carboxylic acid (2-methyl-pyridin-3-yl)-amide] | < 100
Cc1ncccc1NC(=O)c1ccc2c(c1)C(=O)OC[C@@H]1C[C@@](O)(C(F)(F)F)CC[C@@]21Cc1ccccc1 [Example 115, (7aR,9R,11aS)-11a-Benzyl-9-hydroxy-N-(2-methylpyridin-3-yl)-5-oxo-9-(trifluoromethyl)-5,7,7a,8,9,10,11,11a-octahydrodibenzo[c,e]oxepine-3-carboxamide] | 100 to 1000
Cc1ncccc1NC(=O)c1ccc2c(c1)COC[C@@H]1C[C@@](O)(C(F)(F)F)CC[C@@]21Cc1ccccc1 [Example 116, (7aR,9R,11aS)-11a-Benzyl-9-hydroxy-N-(2-methylpyridin-3-yl)-9-(trifluoromethyl)-5,7,7a,8,9,10,11,11a-octahydrodibenzo[c,e]oxepine-3-carboxamide] | 100 to 1000
Cc1ncccc1NC(=O)c1ccc2c(c1)CN(C)C[C@@H]1C[C@@](O)(C(F)(F)F)CC[C@@]21Cc1ccccc1 [Example 117, (3R,4aR,11bS)-11b-Benzyl-3-hydroxy-6-methyl-N-(2-methylpyridin-3-yl)-3-(trifluoromethyl)-2,3,4,4a,5,6,7,11b-octahydro-1H-dibenzo[c,e]azepine-9-carboxamide] | 100 to 1000
Cc1ncccc1NC(=O)c1ccc2c(c1)C(=O)CC[C@@H]1C[C@@](O)(C(F)(F)F)CC[C@@]21Cc1ccccc1 [Example 118, (7aR,9R,11aS)-11a-Benzyl-9-hydroxy-5-oxo-9-trifluoromethyl-6,7,7a,8,9,10,11,11a-octahydro-5H-dibenzo[a,c]cycloheptene-3-carboxylic acid (2-methyl-pyridin-3-yl)-amide] | < 100
CC[C@@]12CC[C@](O)(CCC(F)(F)F)C[C@@H]1CCCc1cc(C(=O)Nc3cccnc3C)ccc12.CC[C@]12CC[C@@](O)(CCC(F)(F)F)C[C@H]1CCCc1cc(C(=O)Nc3cccnc3C)ccc12 [Example 133, (7aS,9S,11aR)-11a-Ethyl-9-hydroxy-9-(3,3,3-trifluoro-propyl)-6,7,7a,8,9,10,11,11a-octahydro-5H-dibenzo[a,c]cycloheptene-3-carboxylic acid (2-methyl-pyridin-3-yl)-amide; compound with (7aR,9R,11aS)-11a-ethyl-9-hydroxy-9-(3,3,3-trifluoro-propyl)-6,7,7a,8,9,10,11,11a-octahydro-5H-dibenzo[a,c]cycloheptene-3-carboxylic acid (2-methyl-pyridin-3-yl)-amide] | < 100
CC[C@@]1(O)CC[C@@]2(CC)c3ccc(C(=O)Nc4cccnc4C)cc3COC[C@H]2C1 [Example 140] | 100 to 1000
CC[C@]1(O)CC[C@]2(CC)c3ccc(C(=O)Nc4cccnc4C)cc3COC[C@@H]2C1 [Example 141] | > 10000

Further lines, results first:

IC50 [nM] | Compound
< 100 | CC[C@@]1(O)CC[C@@]2(Cc3ccccc3)c3ccc(C(=O)Nc4ccc(-c5cn[nH]c5)nc4C)cc3CCC[C@H]2C1 [Example 88]
100 to 1000 | CC[C@@]1(O)CC[C@@]2(Cc3ccccc3)c3ccc(C(=O)N(C)c4cccnc4C)cc3CCC[C@H]2C1 [Example 89, (7aS,9R,11aS)-11a-Benzyl-9-ethyl-9-hydroxy-6,7,7a,8,9,10,11,11a-octahydro-5H-dibenzo[a,c]cycloheptene-3-carboxylic acid methyl-(2-methyl-pyridin-3-yl)-amide]
< 100 | CCOC[C@@]1(O)CC[C@@]2(Cc3ccccc3)c3ccc(C(=O)Nc4cccnc4C)cc3CCC[C@H]2C1 [Example 93]
< 100 | CCCOC[C@@]1(O)CC[C@@]2(Cc3ccccc3)c3ccc(C(=O)Nc4cccnc4C)cc3CCC[C@H]2C1 [Example 98]
1000 to 10000 | CCCOC[C@]1(O)CC[C@]2(Cc3ccccc3)c3ccc(C(=O)Nc4cccnc4C)cc3CCC[C@@H]2C1 [Example 99]
< 100 | CC[C@@]1(O)CC[C@@]2(Cc3ccccc3)c3ccc(C(=O)Nc4ccccc4N)cc3CCC[C@H]2C1 [Example 126, (7aS,9R,11aS)-11a-Benzyl-9-ethyl-9-hydroxy-6,7,7a,8,9,10,11,11a-octahydro-5H-dibenzo[a,c]cycloheptene-3-carboxylic acid (2-amino-phenyl)-amide]
100 to 1000 | CC[C@@]1(O)CC[C@@]2(Cc3ccccc3)c3ccc(-c4nc5ccccc5[nH]4)cc3CCC[C@H]2C1 [Example 127, (3R,4aS,11bS)-9-(1H-benzoimidazol-2-yl)-11b-benzyl-3-ethyl-2,3,4,4a,5,6,7,11b-octahydro-1H-dibenzo[a,c]cyclohepten-3-ol]
< 100 | CC[C@@]1(O)CC[C@@]2(Cc3ccccc3)c3ccc(C(=O)Nc4cccc(N)c4)cc3CCC[C@H]2C1 [Example 142, (7aS,9R,11aS)-11a-Benzyl-9-ethyl-9-hydroxy-6,7,7a,8,9,10,11,11a-octahydro-5H-dibenzo[a,c]cycloheptene-3-carboxylic acid (3-amino-phenyl)-amide]
< 100 | CC[C@@]1(O)CC[C@@]2(Cc3ccccc3)c3ccc(C(=O)Nc4ccc(N)cc4)cc3CCC[C@H]2C1 [Example 143, (7aS,9R,11aS)-11a-Benzyl-9-ethyl-9-hydroxy-6,7,7a,8,9,10,11,11a-octahydro-5H-dibenzo[a,c]cycloheptene-3-carboxylic acid (4-amino-phenyl)-amide]
